Results taken from publication PMC6332026, “Synthesis and Pharmacochemistry of New Pleiotropic Pyrrolyl Derivatives” (Molecules, 2015).
pIC50: −log10 of the molar value. Entries after “also recorded” stand apart in the source; their conditions may differ. Marks after values point to notes of the source that are not given here.

Experiments:
[1] = Interaction with the stable free radical DPPH (reducing activity); conditions: 1000 μM compound, DPPH 50 μM
Protocol: 2,2-Diphenyl-1-picrylhydrazyl (DPPH) is a lipophilic, free, stable radical, which absorbs at 517 nm (violet color). Upon reduction, decolorization is observed that is stoichiometric to the number of received electrons and is representative of the antioxidant ability of compounds. […] This interaction, which indicates their radical scavenging ability in an iron-free system, was measured at 100 and 1000 μM after 20 and 60 min, whereas the final concentration of DPPH was stable at 50 μΜ.
[…] The absorbance was measured at 517 nm after 20 and 60 min at room temperature.

[2] = Superoxide radical scavenging activity (non-enzymatic, PMS/NADH, NBT method); conditions: 100 μM
From the text: Superoxide anion radical is an active form of oxygen, and it is the product of the one-electron reduction of […] oxygen. Herein, superoxide radicals were formed by mixing phenazine methosulfate (PMS) with NADH and air-oxygen. The production of radicals was estimated with the nitroblue-tetrazolium method (NBT). From the tested pyrroles, Compounds 2i and 2iii were equipotent (57%) scavengers. […] In contrast, the dipole moment appeared to be important. The values of the dipole, as calculated by the program Spartan v.5.1.3.
The superoxide anion radicals were produced non-enzymatically by mixing phenazine methosulfate (PMS) with NADH and air-oxygen. The production of superoxide radicals was estimated with the nitroblue-tetrazolium (NBT) method with 3 μΜ PMS, 78 μΜ NADH and 25 μΜ NBT in 19 μΜ phosphate buffer pH 7.4. The absorbance was measured at 560 nm at room temperature. The tested compounds were added in the mixture 2 min before the addition of NADH [52].

[3] = target: COX-1 (Homo sapiens, UniProt P23219); test: Inhibition of COX-1 (preliminary results); assay type: biochemical
Sequence of COX-1 (P23219 24-599): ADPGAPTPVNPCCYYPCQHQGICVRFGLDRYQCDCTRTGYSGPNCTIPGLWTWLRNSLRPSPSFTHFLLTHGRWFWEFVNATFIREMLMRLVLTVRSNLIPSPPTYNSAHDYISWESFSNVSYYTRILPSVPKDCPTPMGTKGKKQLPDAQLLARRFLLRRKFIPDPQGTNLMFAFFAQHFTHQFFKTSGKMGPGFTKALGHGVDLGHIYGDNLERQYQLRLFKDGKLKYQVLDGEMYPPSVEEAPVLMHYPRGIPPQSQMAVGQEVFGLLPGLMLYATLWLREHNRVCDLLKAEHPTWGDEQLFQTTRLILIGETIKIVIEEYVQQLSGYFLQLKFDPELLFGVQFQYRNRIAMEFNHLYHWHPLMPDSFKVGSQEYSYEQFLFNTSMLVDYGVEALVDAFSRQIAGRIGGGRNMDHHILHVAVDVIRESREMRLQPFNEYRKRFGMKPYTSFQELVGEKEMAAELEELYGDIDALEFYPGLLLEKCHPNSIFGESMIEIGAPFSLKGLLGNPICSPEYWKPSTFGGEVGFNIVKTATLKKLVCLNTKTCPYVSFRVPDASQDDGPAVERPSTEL
From the text: More experiments are in progress to delineate accurately the inhibition profile.

[4] = target: T1, trypsin (Bos taurus, UniProt P00760); test: Inhibition of the proteolytic activity of trypsin; assay type: biochemical; conditions: bovine albumin substrate, pH 7.6; read-out: TP IC50 (inhibition of trypsin)
T1 construct: purchased Sigma Chemical, Co. (St. Louis, MO, USA); host or cells: bovine pancreas
T1 sequence (P00760 24-246): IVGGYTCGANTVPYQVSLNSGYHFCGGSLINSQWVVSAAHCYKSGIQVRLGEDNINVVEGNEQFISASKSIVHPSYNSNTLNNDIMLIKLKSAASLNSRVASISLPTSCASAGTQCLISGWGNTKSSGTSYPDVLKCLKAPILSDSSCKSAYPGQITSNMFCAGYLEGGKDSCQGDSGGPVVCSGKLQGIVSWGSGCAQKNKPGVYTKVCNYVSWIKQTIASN
From the text: Trypsin is an enzyme with an active role in inflammation. Thus, we studied the anti-proteolytic ability of the pyrrole derivatives, using salicylic acid as a reference compound. […] Comparing Compounds 2iv and 2v, the insertion of an electron-acceptor substituent (Cl) on the phenyl ring (substituent Ar^2) and the simultaneous increase of the volume of substituent Ar^2 (expressed as molar refractivity) led to an enhancement of the anti-proteolytic activity.
Carrageenan, type K, was commercially available. Cycloxygenase-2 (COX-2) and interleukin-6 (IL-6) EIA Kit, Item No. 583371 were purchased from Cayman. Trolox was obtained from Aldrich Chemical Co. (Milwaukee, WI, USA). All starting materials were obtained from commercial sources, and they were used without further purification.
The tested compounds (concentrations varying from 10 μΜ–100 μΜ in DMSO) were dissolved in a phosphate buffer (0.1 M K2HPO4–NaH2PO4·2H2O, pH = 7.6), and 0.2 mL of trypsin 0.075 mg/mL were added. The mixture was incubated at room temperature for 20 min, and then, 1 mL of bovine albumin (6 g/100 mL) was added. The mixture was incubated at 37 °C for 30 min. The reaction was stopped with the addition of 1 mL of trichloroacetic acid (5% w/w) Separation of the phases followed, with measurement of the supernatants at 280 nm at room temperature. IC50 values were determined.

[5] = tested on: carrageenan-induced rat paw edema; test: Inhibition of rat paw edema induced by carrageenan; assay type: in vivo, Fischer 344 rats; conditions: intraperitoneally, 3.5 h; for inhibition in vivo at 10 µmol/kg: Rattus norvegicus, ip, 0.01 mmol/kg body weight, read-out: CPE % inhibition of rat paw edema induced by carrageenan
Protocol: The pyrrolyl derivatives, as well as their precursor chalcones were tested in vivo for the inhibition of rat paw edema induced by carrageenan. […] […]. For Compounds 2i, 2iii, 2iv and 2v, we determined their ED50 values. […]. The finding supports the primary idea of this design.
Edema was induced in the right hind paw of Fischer 344 rats (150–200 g). In the study, both males and females were included, with the exemption of pregnant females. The animals, which have been bred in our laboratory, were housed under standard conditions and received a diet of commercial food pellets and water ad libitum during maintenance. One hour before the onset of the experiment, food and water were removed. The tested compounds (dose 0.01 mmol/kg body weight) were diluted in water with a few drops of Tween 80, and they were administered intraperitoneally simultaneously with the intradermal injection of 0.1 mL 2% of carrageenan in water. The animals were euthanatized 3.5 h after the carrageenan administration. The difference between the weight of injected and uninjected paws was calculated for each animal and was compared to control animals, which were treated with water. Indomethacin was used as a reference compound in 0.01 mmol/kg. The results were expressed as the percent inhibition of the edema (CPE %).

[6] = target: T2, COX-2 (Homo sapiens, UniProt P35354); test: Inhibition of cycloxygenase-2 (colorimetric TMPD assay); conditions: for COX-2 % inhibition: 100 μM; for inhibition at 100 µM: read-out: COX-2 % inhibition
T2 sequence (P35354 18-604): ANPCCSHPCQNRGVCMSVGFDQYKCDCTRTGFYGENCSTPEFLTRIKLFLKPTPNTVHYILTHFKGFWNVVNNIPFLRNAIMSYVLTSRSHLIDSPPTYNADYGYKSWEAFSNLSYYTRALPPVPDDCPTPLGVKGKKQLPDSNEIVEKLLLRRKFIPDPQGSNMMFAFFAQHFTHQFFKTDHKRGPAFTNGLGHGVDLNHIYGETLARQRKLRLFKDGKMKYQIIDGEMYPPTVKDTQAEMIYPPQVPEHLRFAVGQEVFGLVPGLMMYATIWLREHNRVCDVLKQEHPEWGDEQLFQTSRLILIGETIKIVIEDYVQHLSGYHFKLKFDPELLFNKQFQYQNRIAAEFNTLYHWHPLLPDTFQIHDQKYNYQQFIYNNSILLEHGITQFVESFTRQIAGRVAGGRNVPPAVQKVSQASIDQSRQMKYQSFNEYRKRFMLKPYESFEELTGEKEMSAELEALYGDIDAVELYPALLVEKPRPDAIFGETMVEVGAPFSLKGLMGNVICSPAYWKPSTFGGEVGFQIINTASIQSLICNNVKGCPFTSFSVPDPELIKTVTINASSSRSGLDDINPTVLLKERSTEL
Protocol: The inhibition of COX-2, as a peroxidase, was determined by a colorimetric assay with the oxidation of N,N,N′,N′-tetramethyl-p-phenylenediamine (TMPD).
COX-2 inhibitory activity was determined by using arachidonic acid (AA) as a substrate in buffer (0.1 M Tris pH 8.5) and TMPD as a co-substrate.

Row | pIC50 [4] | SMILES | RA % (interaction with DPPH) ([1]; 20 min) | RA % (interaction with DPPH) ([1]; 60 min) | O2^•− % superoxide radical scavenging activity [2] | inhibition at 100 µM [3] | inhibition in vivo at 10 µmol/kg [5] | ED50 (carrageenan rat paw edema) [5] | COX-2 % inhibition [6] | inhibition at 100 µM [6]
1 | 5.05 | O=C(c1cccs1)c1c[nH]cc1-c1ccc(OCc2ccc(Br)cc2)cc1 [Compound 2iii, (4-{4-[(4-Bromobenzyl)oxy]phenyl}-1H-pyrrol-3-yl)(thien-2-yl)methanone] | 4% | 5% | 57% | 75% | 89% | 0.052 mmol/kg Body Weight | inactive; also recorded: without any activity | 
2 | 4.19 | O=C(c1ccccc1)c1c[nH]cc1-c1cccc2ccccc12 [Compound 2iv, [4-(Naphth-1-yl)-1H-pyrrol-3-yl](phenyl)methanone] | 8% | 10% | 76% |  | 75% |  | inactive | 
3 | 4.22 | O=C(c1cccs1)c1c[nH]cc1-c1cccc(Oc2ccccc2)c1 [Compound 2i, [4-(3-Phenoxyphenyl)-1H-pyrrol-3-yl](thien-2-yl)methanone] |  |  | 57% |  |  | 0.061 ^c mmol/kg Body Weight |  | 67.2%

Row | SMILES | pIC50 [4] | RA % (interaction with DPPH) ([1]; 20 min) | RA % (interaction with DPPH) ([1]; 60 min) | O2^•− % superoxide radical scavenging activity [2] | inhibition at 100 µM [3] | inhibition in vivo at 10 µmol/kg [5] | ED50 (carrageenan rat paw edema) [5] | COX-2 % inhibition [6] | inhibition at 100 µM [6]
4 | O=C(c1ccc(Cl)cc1)c1c[nH]cc1-c1cccc2ccccc12 [Compound 2v, (4-Chlorophenyl)[4-(naphth-1-yl)-1H-pyrrol-3-yl]methanone] | 5.10 |  |  | inactive | 75% | 78% | 0.063 mmol/kg Body Weight |  | 81%
